# Reference: patent US10041937B2, “Macrophage identification agent, and identification method, sorting method, evaluation method, screening method and kit using the macrophage identifier agent” (CANON KABUSHIKI KAISHA, priority 2013, dated 2018)
# Experiments:
# [1] = system: M1 macrophages and M2 macrophages; assay: Analysis of export inhibition of the identification agent by a test substance (FTC, MK-571, DIDS); type: cell-based, mouse
# Experimental: Besides, Fumitremorgin C (manufactured by Sigma-Aldrich, hereinafter referred to as FTC) was added thereto, as a substance for inhibiting export of the compound (1) having been imported into cells, to a concentration of 10 μM, and the resultant was incubated at 37° C. for 30 minutes. Thereafter, the tube was centrifuged at 180 G for 10 minutes to remove the supernatant, and then, 1 mL of a HBSS buffer containing the FTC in a concentration of 10 μM was added thereto to suspend the cells, and the resultant was further incubated at 37° C. for 30 minutes.
# Furthermore, each tube was centrifuged at 180 G for 10 minutes to remove the supernatant, the cells were suspended by adding the dye aqua for identifying dead cells thereto, and the resultant was incubated at 4° C. for 10 minutes. Thereafter, the tube was centrifuged at 180 G for 10 minutes to remove the supernatant, and then, the cells were suspended in a FACS buffer and analyzed by using a FACSCanto (trademark) II flow cytometry apparatus manufactured by BD.
# The analysis was performed on a cell population showing a low signal for the aqua, so as to analyze a cell population from which dead cells were eliminated.
# The analysis was performed in the same manner as in Example 57 except that the FTC was not added.
# Thereafter, the tube was centrifuged at 180 G for 10 minutes to remove the supernatant, and then, 1 mL of a HBSS buffer containing the MK-571 in a concentration of 10 μM was added thereto to suspend the cells, and the resultant was further incubated at 37° C. for 30 minutes.
# The analysis was performed in the same manner as in Example 79 except that the MK-571 was not added. […] The degree of the enhancement of the peak intensity caused by adding the MK-571 was evaluated by calculating the resolution R described above by using peak intensities in histograms prepared with and without adding the MK-571.
# Thereafter, the tube was centrifuged at 180 G for 10 minutes to remove the supernatant, and then, 1 mL of a HBSS buffer containing the DIDS in a concentration of 10 μM was added thereto to suspend the cells, and the resultant was further incubated at 37° C. for 30 minutes.
# [2] = system: M1 macrophages and M2 macrophages differentiated from THP-1 cells; assay: Identification of macrophage subtypes differentiated from human cell line THP-1; type: cell-based; conditions: THP-1 derived M1 and M2
# Experimental: The fluorescent signals derived from the compounds (3), (4), (6), (7), (9), (11) to (13), (15), (17), (19) to (26), (28), (30) to (33), (35), (36), (38), (42) to (45), (48) to (62), (65), (67), (74) to (76), (82), (83) and (85) and the comparative compounds (1) and (2) were measured in channels suitable to the respective compounds. Histograms were prepared by plotting fluorescence intensities obtained in the respective channels on the abscissa and plotting the numbers of cells at each fluorescence intensity on the ordinate. A difference between a fluorescence intensity (FM1) at a peak top of the histogram of the M1 macrophage and a fluorescence intensity (FM2) at a peak top of the histogram of the M2 macrophage is divided by a sum of a peak width (WM1) of the histogram of the M1 macrophage and a peak width (WM2) of the histogram of the M2 macrophage, so as to obtain a resolution R, which was used as an index of the identification ability for a subtype (see the following expression (1)). Resolution R=|FM1−FM2|/(WM1+WM2) Expression (1)
# Based on the thus obtained values of the resolution R, the identification abilities for the subtypes of the compounds (3), (4), (6), (7), (9), (11) to (13), (15), (17), (19) to (26), (28), (30) to (33), (35), (36), (38), (42) to (45), (48) to (62), (65), (67), (74) to (76), (82), (83) and (85) and the comparative compounds (1) and (2) were evaluated as any of A to C according to the following criteria, and if the resolution R was 0.15 or more, the compound was determined to be good in the subtype identification.
# The subtypes were identified by using the compound (1) in the same manner as in Example 1 except that the macrophage subtypes differentiated from the mouse bone marrow cells were changed to macrophage subtypes differentiated from a cell line established from human acute monocytic leukemia.
# The culture of subtypes was performed with reference to NPL 10. Specifically, THP-1 cells purchased from JCRB Cell Bank of National Institute of Biomedical Innovation, that is, a cell line established from human acute monocytic leukemia, were subcultured several times, and the resultant cells were dispersed to a concentration of 5.0×10^5/mL in an RPMI1640 containing 10% FBS and 1% P/S, and 5.0×10^6 cells were seeded in a 100 mm dish. The monocytes were differentiated into macrophages by incubating the resultant in the presence of 5% CO2 at 37° C. for 2 days with 500 ng of PMA added thereto. After exchanging the medium, by adding 200 ng of interferon-γ and 1 μg of polyliposaccharide (both manufactured by Pepro Tech) to the medium, the cells were differentiated to the subtype M1. Besides, by adding 200 ng of IL-4 and IL-13, the cells were differentiated to the subtype M2. After incubation performed in the presence of 5% CO2 at 37° C. for 24 hours, the resultant was rinsed with PBS, and PBS containing 0.25% trypsin and 1 mM EDTA (ethylenediaminetetraacetic acid) was used for collecting, from the dish, the macrophages having been differentiated to the subtypes M1 and M2.
# Specifically, fluorescent signals derived from the compounds (1) (3) (4) (12) and (15) were measured by using the channels which are appropriate for each of the compounds and the identification abilities for the subtypes of the compounds were evaluated based on the values of the resolution R.
# [3] = system: M1 macrophages and M2 macrophages differentiated from mouse bone marrow cells; assay: Subtype identification by staining and flow cytometry of M1 and M2 macrophages differentiated from mouse bone marrow cells; type: cell-based, Balb/c mouse; conditions: for Resolution ratio R: M1 vs M2 macrophages from mouse bone marrow cells; for Evaluation of macrophage subtype identification: class based on resolution R; for Peak position of M1 macrophage: mouse bone marrow-derived M1 macrophages; for Peak position of M1 macrophage / Peak position of M2 macrophage: channel listed per compound; for Peak position of M2 macrophage: mouse bone marrow-derived M2 macrophages; for subtype more strongly stained: two compounds used in combination, each 1 μM
# Method in brief: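 Balb/c mouse bone marrow cells were differentiated to macrophages with 50 ng/mL M-CSF over two 3–4-day periods, then polarized for 3 days to M1 (interferon-γ plus polyliposaccharide) or M2 (IL-4). Live cells (aqua dye-negative) were analysed by flow cytometry; resolution R = |FM1−FM2|/(WM1+WM2) from histogram peak positions and widths indexed subtype discrimination.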
# [4] = system: mixture of the M1 macrophages and the M2 macrophages; assay: Sorting of subtypes from a mixture of M1 and M2 macrophages with an FACS apparatus; type: cell-based, mouse; conditions: compound 1 μM; for sorting of identified M1 and M2 macrophages: FACS apparatus; for subtype more strongly stained: mixed M1 and M2 macrophages
# [5] = system: M1 macrophages and M2 macrophages differentiated from RAW264.7 cells; assay: Identification of macrophage subtypes differentiated from mouse cell line RAW264.7; type: cell-based; conditions: RAW264.7 derived M1 and M2
# Experimental: The subtypes were identified by using the compound (1) in the same manner as in Example 1 except that the macrophage subtypes differentiated from the mouse bone marrow cells were changed to macrophage subtypes differentiated from a cell line established from mouse monocytic leukemia.
# The culture of subtypes was performed with reference to NPL 9. Specifically, RAW264.7 cells purchased from American Type Culture Collection, that is, a cell line established from mouse monocytic leukemia, were subcultured several times, and the resultant cells were dispersed to a concentration of 3.3×10^4/mL in a D-MEM containing 10% FBS, 1% P/S and 1% MEM-NEAA, and 3.3×10^5 cells were seeded in a 100 mm dish. The cells were grown by incubation performed in the presence of 5% CO2 at 37° C. After 2 to 4 days, it was confirmed that an area of about to 70% of the bottom of the dish had been covered by the cells, the medium was then exchanged, and by adding 200 ng of interferon-γ and 1 μg of polyliposaccharide (both manufactured by Pepro Tech) to the medium, the cells were differentiated to the subtype M1. Besides, by adding 100 ng of IL-4, the cells were differentiated to the subtype M2. […]
# A histogram was prepared by plotting fluorescence intensity obtained in the FITC channel on the abscissa and plotting the number of cells at each fluorescence intensity on the ordinate, which is shown in FIG. 9.
# [6] = general formula (10) dyes (Table 8)
# [7] = general formula (11) dyes (Table 9)
smiles,measurement,setting,value
"O=S(=O)(O)c1cc(N=C=S)ccc1C=Cc1ccc(N=C=S)cc1S(=O)(=O)O [DIDS, 4,4′-diisothiocyanatostilbene-2,2′-disulfonic acid]",enhancement of the fluorescence intensity caused by inhibition of export of the compound (139),"[1]; DIDS 10 μM, compound (139) 1 μM",observed merely in the M1 macrophages
"COc1ccc2c3c([nH]c2c1)[C@H](C=C(C)C)N1C(=O)[C@@H]2CCCN2C(=O)[C@@H]1C3 [FTC, Fumitremorgin C]",enhancement of the fluorescence intensity caused by inhibition of export of the compound (1),"[1]; FTC 10 μM, compound (1) 1 μM",observed merely in the M2 macrophages
CN(C)C(=O)CCSC(SCCC(=O)O)c1cccc(/C=C/c2ccc3ccc(Cl)cc3n2)c1 (stereo not drawn) [MK-571],degree of the enhancement of the peak intensity (resolution R with and without MK-571),"[1]; M1 macrophages, MK-571 10 μM, compound (113) 1 μM",0.406
same,degree of the enhancement of the peak intensity (resolution R with and without MK-571),"[1]; M1 macrophages, MK-571 10 μM, compound (120) 1 μM",0.739
same,degree of the enhancement of the peak intensity (resolution R with and without MK-571),"[1]; M2 macrophages, MK-571 10 μM, compound (113) 1 μM",0.438
same,degree of the enhancement of the peak intensity (resolution R with and without MK-571),"[1]; M2 macrophages, MK-571 10 μM, compound (120) 1 μM",0.730
same,enhancement of the fluorescence intensity caused by inhibition of export of the compound (113),"[1]; MK-571 10 μM, compound (113) 1 μM",observed in both the M1 macrophages and the M2 macrophages
same,enhancement of the fluorescence intensity caused by inhibition of export of the compound (120),"[1]; MK-571 10 μM, compound (120) 1 μM",observed in both the M1 macrophages and the M2 macrophages
CCN(CC)c1ccc2cc(-c3nc4cc(Cl)ccc4o3)c(=O)oc2c1 [compound (120)],subtype more strongly stained,[2],the M1 macrophages were stained more strongly by the compound (120) than the M2 macrophages
same,Resolution ratio R,[3]; [6],0.676
same,Evaluation of macrophage subtype identification,[3]; [6],"A (The compound is very good in the subtype identification (namely, the resolution R is 0.5 or more))"
same,Peak position of M1 macrophage,[3]; [6],10.1
same,Peak position of M2 macrophage,[3]; [6],5.60
same,subtype more strongly stained,[3],more strongly stain the M1 macrophages than the M2 macrophages
same,sorting of identified M1 and M2 macrophages,[4],could be each sorted with an FACS apparatus
same,subtype more strongly stained,[4],stain the M1 macrophages more strongly than the M2 macrophages
CCN(CC)c1ccc2cc(-c3nc4ccccc4s3)c(=O)oc2c1 [compound (129)],subtype more strongly stained,[2],the M1 macrophages were stained more strongly by the compound (129) than the M2 macrophages
same,subtype more strongly stained,[5],the M1 macrophages were stained more strongly by the compound (129) than the M2 macrophages
same,Resolution ratio R,[3]; [6],0.709
same,Evaluation of macrophage subtype identification,[3]; [6],"A (The compound is very good in the subtype identification (namely, the resolution R is 0.5 or more))"
same,Peak position of M1 macrophage,[3]; [6],31.0
same,Peak position of M2 macrophage,[3]; [6],13.0
CCC1=C(C)C2=C(C)c3c(C)c(CC)c(C)n3[B-](F)(F)[N+]2=C1C [compound (139)],subtype more strongly stained,[2],the M1 macrophages were stained more strongly by the compound (139) than the M2 macrophages
same,Resolution ratio R,[3]; [7],1.023
same,Evaluation of macrophage subtype identification,[3]; [7],"A (The compound is very good in the subtype identification (namely, the resolution R is 0.5 or more))"
same,Peak position of M1 macrophage,[3]; [7],220
same,Peak position of M2 macrophage,[3]; [7],47.8
same,subtype more strongly stained,[3],the M1 macrophages show higher fluorescence intensity in the FITC channel than the M2 macrophages
same,sorting of identified M1 and M2 macrophages,[4],could be each sorted with an FACS apparatus
same,subtype more strongly stained,[4],staining the M1 macrophages more strongly than the M2 macrophages
